Laboratory results: EPA's ToxRefDB 2

Legend:
dog [1] = details: Sub-acute repeat dose toxicity; beagle; Oral; Gavage/Intubation; dose end: 21 day; group: systemic; systemic / in life observation / clinical signs / abnormal feces + systemic / in life observation / clinical signs / watery stools
dog [2] = details: Sub-acute repeat dose toxicity; beagle; Oral; Gavage/Intubation; dose end: 16 day; group: systemic; systemic / in life observation / clinical signs / abnormal feces + systemic / in life observation / clinical signs / emesis + systemic / in …
rat [3] = details: Sub-acute repeat dose toxicity, Oral, Gavage/Intubation, dose end: 12 day, group: systemic
dog [4] = details: Sub-acute repeat dose toxicity; beagle; Oral; Gavage/Intubation; dose end: 23 day; group: systemic; systemic / in life observation / clinical signs / abnormal feces + systemic / in life observation / clinical signs / watery stools
rabbit = details: Sub-acute repeat dose toxicity, new zealand white, Oral, Gavage/Intubation, dose end: 5 day, group: systemic
rat [5] = details: Sub-acute repeat dose toxicity, sprague dawley, Oral, Gavage/Intubation, dose end: 15 day, group: systemic
dog [6] = details: Subchronic oral toxicity in nonrodent, beagle, Gavage/Intubation, dose end: 92 day, group: systemic
rat [7] = details: Subchronic oral toxicity in rodents, sprague dawley, Gavage/Intubation, dose end: 92 day, group: systemic
rat [8] = details: Subchronic oral toxicity in rodents, other, Feed, dose end: 90 day, group: systemic
dog [9] = details: Chronic toxicity, beagle, Oral, Feed, dose end: 52 week, group: systemic
rat [10] = details: Combined chronic toxicity/carcinogenicity, sprague dawley, Oral, Feed, dose end: 104 week, group: systemic
mouse [11] = details: Combined chronic toxicity/carcinogenicity, cd1, Oral, Feed, dose end: 80 week, group: systemic
dog [12] = details: Subchronic oral toxicity in nonrodent, beagle, Feed, dose end: 90 day, group: systemic, systemic / in life observation / body weight / body weight gain + systemic / in life observation / clinical signs / emaciation + systemic / …
mouse [13] = details: Subchronic oral toxicity in rodents, cd1, Feed, dose end: 91 day, group: systemic
rat [14] = details: Multigenerational reproductive toxicity study, sprague dawley, Oral, Feed, dose end: 2 generation
[15] = systemic / in life observation / body weight / body weight + systemic / in life observation / clinical signs / red or crusty deposits around…
[16] = systemic / in life observation / clinical signs / salivation + systemic / organ weight / liver / absolute
[17] = systemic / in life observation / body weight / body weight + systemic / in life observation / clinical signs / abnormal feces + systemic / …
[18] = systemic / in life observation / mortality / mortality + systemic / pathology gross / stomach / discolored + systemic / pathology gross / …
[19] = systemic / clinical chemistry / [other] / [other] + systemic / clinical chemistry / cytochrome p450, nos / cytochrome p450, nos + systemic…
[20] = systemic / in life observation / body weight / body weight gain + systemic / in life observation / food consumption / food consumption
[21] = systemic / in life observation / body weight / body weight gain + systemic / in life observation / food consumption / food consumption + …
[22] = systemic / organ weight / liver / absolute + systemic / organ weight / liver / relative to body weight + systemic / clinical chemistry / …
[23] = systemic / organ weight / liver / absolute + systemic / organ weight / liver / relative to body weight + systemic / in life observation / …
[24] = systemic / in life observation / body weight / body weight + systemic / in life observation / body weight / body weight gain + systemic / in…
[25] = systemic / clinical chemistry / globulins / globulins + systemic / pathology gross / full gross necropsy / lymp lymphoma malignant …
[26] = systemic / pathology microscopic / liver / hypertrophy
[27] = systemic / pathology gross / ear / misshapen
[28] = systemic / pathology microscopic / liver / hypertrophy + systemic / clinical chemistry / albumin / albumin + systemic / clinical chemistry…
[29] = group: offspring, systemic / in life observation / body weight / offspring (pup) weight
[30] = group: parental, systemic / in life observation / body weight / body weight gain + systemic / in life observation / body weight / body weight
[31] = group: reproductive, reproductive / reproductive performance / gestational length / gestational length

## CCC(CC)Nc1cc(C)nc(Oc2c(C)cc(C)cc2C)c1C
Dog [1]
  LEL: 5 mg/kg/day
  LOAEL: > 5 mg/kg/day
  NEL: 1 mg/kg/day
  NOAEL: ≥ 5 mg/kg/day
Dog [2]
  LEL: 20 mg/kg/day
  LOAEL: > 20 mg/kg/day
  NEL: 10 mg/kg/day
  NOAEL: ≥ 20 mg/kg/day
Rat [3]; [15]
  LOAEL: > 500 mg/kg/day
  NOAEL: ≥ 500 mg/kg/day
Rat [3]; [16]
  LEL: 250 mg/kg/day
  NEL: < 250 mg/kg/day
Dog [4]
  LEL: 1 mg/kg/day
  LOAEL: > 1 mg/kg/day
  NEL: < 1 mg/kg/day
  NOAEL: ≥ 1 mg/kg/day
rabbit; [17]
  LOAEL: > 500 mg/kg/day
  NEL: 50 mg/kg/day
  NOAEL: ≥ 500 mg/kg/day
rabbit; systemic / in life observation / food consumption / food consumption
  LEL: 100 mg/kg/day
Rat [5]; systemic / in life observation / body weight / body weight + systemic / in life observation / body weight / body weight gain + systemic / …
  LEL: 100 mg/kg/day
Rat [5]; [18]
  LOAEL: > 1000 mg/kg/day
  NOAEL: ≥ 1000 mg/kg/day
Dog [6]; [19]
  LOAEL: > 20 mg/kg/day
  NOAEL: ≥ 20 mg/kg/day
Dog [6]; systemic / in life observation / clinical signs / abnormal feces
  LEL: 2 mg/kg/day
Rat [7]; [20]
  LEL: 1 mg/kg/day
  NEL: < 1 mg/kg/day
Rat [7]; [21]
  LOAEL: > 100 mg/kg/day
  NOAEL: ≥ 100 mg/kg/day

## CCOCn1c(-c2ccc(Cl)cc2)c(C#N)c(Br)c1C(F)(F)F [Chlorfenapyr]
Rat [8]; [22]
  NEL: 24.1 mg/kg/day
  NOAEL: 24.1 mg/kg/day
Rat [8]; [23]
  LEL: 48.4 mg/kg/day
  LOAEL: 48.4 mg/kg/day
Dog [9]; systemic / in life observation / body weight / body weight + systemic / in life observation / body weight / body weight gain
  LOAEL: 8.7 mg/kg/day
Dog [9]; [24]
  LEL: 8.7 mg/kg/day
  NEL: 4 mg/kg/day
  NOAEL: 4 mg/kg/day
Rat [10]; [25]
  NEL: 30.8 mg/kg/day
  NOAEL: 2.9 mg/kg/day
Rat [10]; [26]
  LOAEL: 15 mg/kg/day
Mouse [11]; systemic / in life observation / clinical signs / scabbing + systemic / pathology microscopic / brain / vacuolization
  LOAEL: 16.6 mg/kg/day
Mouse [11]; systemic / in life observation / clinical signs / scabbing + systemic / pathology microscopic / brain / vacuolization + systemic / …
  NOAEL: 2.8 mg/kg/day
Mouse [11]; [27]
  LEL: 2.8 mg/kg/day
  NEL: < 2.8 mg/kg/day
Dog [12]
  LEL: 6.7 mg/kg/day
  LOAEL: 6.7 mg/kg/day
  NEL: 3.9 mg/kg/day
  NOAEL: 3.9 mg/kg/day
Mouse [13]; [26]
  LOAEL: 14.8 mg/kg/day
Mouse [13]; [28]
  NEL: 7.1 mg/kg/day
  NOAEL: 7.1 mg/kg/day
Mouse [13]; systemic / pathology microscopic / liver / hypertrophy + systemic / hematology / lymphocyte / lymphocyte + systemic / hematology / …
  LEL: 14.8 mg/kg/day
Rat [14]; [29]
  LEL: 22 mg/kg/day
  LOAEL: 22 mg/kg/day
  NEL: 5 mg/kg/day
  NOAEL: 5 mg/kg/day
Rat [14]; group: parental, systemic / in life observation / body weight / body weight + systemic / in life observation / body weight / body weight gain
  NEL: 5 mg/kg/day
Rat [14]; group: parental, systemic / in life observation / body weight / body weight gain
  LOAEL: 22 mg/kg/day
Rat [14]; [30]
  LEL: 22 mg/kg/day
  NOAEL: 5 mg/kg/day
Rat [14]; [31]
  LEL: 44 mg/kg/day
  LOAEL: > 44 mg/kg/day
  NEL: 22 mg/kg/day
  NOAEL: ≥ 44 mg/kg/day
